Literature values, collected in US20160361342A1, “USE OF ALGINATE OLIGOMERS IN THE TREATMENT OF CYSTIC FIBROSIS AND OTHER CONDITIONS ASSOCIATED WITH DEFECTIVE CFTR ION CHANNEL FUNCTION” (ALGIPHARAMA AS, priority 2014, published 2016).

Test system: ileum explants from mutant mice
Details: apical medium supplemented with sodium bicarbonate at levels predicted to be reached by wild type CFTR

Question: Which attached mucus phenotype does the source give for O=C([O-])O.[Na+] [sodium bicarbonate] here?
Answer: can be reversed
